Assays:
[1] = Bioavailability assay: single oral dose, plasma analysed by HPLC-UV, AUC compared with amorphous suspension control; type: in vivo, male cynomolgus monkeys; conditions: for bioavailability (in words): observed while developing a solid dosage form with conventional excipients
Method: The formulation to be tested was administered orally to male cynomolgus monkeys in a single dose (PO, single). The number of monkeys for each test is indicated by the letter “N” followed by an equal sign and a number. Thus, “(N=6)” means the formulation was administered to six monkeys. The total amount of the compound of Formula I administered was 100 or 200 mg given as one capsule or tablet containing 100 or 200 mg each. The administered dose (tablet, capsule or control suspension) was slowly washed down with 10 mL of water. Blood samples were taken at 15, 30 minutes, 1 hour, 2 hours, 4 hours, 6 hours, 8 hours, 12 hours, 24 hours, and 48 hours in heparinized syringes. Plasma for analysis was obtained by centrifugation at 4° C. Plasma samples (one per time point) were split and stored at −20° C. until assayed as described below.
The monkeys to be tested were fed two biscuits in the morning on the day of drug administration.
Monkeys that were fasted were not given any food overnight before drug administration and were fed normally after the 4-hour time point after drug administration.
Samples of monkey plasma were collected at selected time intervals. The plasma was analyzed by a high pressure liquid chromatograph (HPLC) procedure with ultraviolet detection. AUC (area under the plasma concentration-time curve, […]) values were calculated using standard procedures to determine the relative bioavailability of the compound in the tested formulations. The larger the AUC value, the greater the bioavailability.
A suspension of the compound of Formula I was used as a control. The control was made by suspending sufficient compound of Formula I in methyl cellulose solution to provide a dose of 30 mg/kg of body weight of monkey. The 0.4% methyl cellulose solution was made by adding 4 grams of methyl cellulose to one liter of distilled water and heating at about 80° C. with stirring for about 1½ hours.
The results of the bioavailability assay are given in terms of percent-relative bioavailability (AUC ratio) compared to amorphous suspension of Compound I in 0.4 methyl cellulose solution.

[2] = target: farnesyl protein transferase (Homo sapiens, UniProt P49356); conditions: cited from earlier work
abnormal growth of cells = conditions: cited from earlier work
[3] = fed monkeys, suspension of crystalline form vs suspension of amorphous form
[4] = suspension of crystalline form vs suspension of amorphous form, feeding state not printed in the sentence (fasted implied by b145)

With `NC(=O)N1CCC(CC(=O)N2CCC(C3c4ncc(Br)cc4CCc4cc(Cl)cc(Br)c43)CC2)CC1` (single isomer, unassigned; (+)) [Compound I, (+)-4-[4-(8-chloro-3,10-dibromo-6,11-dihydro-5H-benzo [5,6cyclohepta[1,2-b]pyridin-11-yl)-1-piperidinyl]-2-oxoethyl]-1-piperidinecarboxamide] the “relative bioavailability, % of the AUC of the amorphous suspension” value [1, 3] was 3.6%, the “relative bioavailability, % of the C max of the amorphous suspension” value [1, 3] was 5.2% and the “bioavailability (in words)” value ([1]; listed as compound of Formula I) was “extremely poor”. For the same compound, the “bioavailability (in words)” value ([1]; listed as crystalline Compound I) was “very poor”, the “relative bioavailability, % of the AUC of the amorphous suspension” value [1, 4] was 1.3% and the “relative bioavailability, % of the Cmax of the amorphous suspension” value [1, 4] was 2.7%. The “activity for inhibiting farnesyl protein transferase (in words)” value [2] was “potent activity” and the “activity for inhibiting the abnormal growth of cells (in words)” value (abnormal growth of cells) was “potent activity”.

Source: US6632455B2, “Molecular dispersion composition with enhanced bioavailability” (Schering Corporation, priority 1997, dated 2003)
